Reference: patent US20190316211A1, “ONCOGENIC ALTERNATIVE SPLICING SWITCH OF PACE4 IN CANCER” (SOCIETE DE COMMERCIALISATION DES PRODUITS DE LA RECHERCHE …, priority 2016, published 2019)

Legend:
Type in all cases: cell-based
PACE4-FL = molecular target: T1, PACE4-FL (Homo sapiens, UniProt P29122); assay: PACE4 secretion assay, displacement by heparin; conditions: increasing doses
T1 construct: V5 (C); His (C); expressed in transfected cells
T1 sequence (P29122 150-969): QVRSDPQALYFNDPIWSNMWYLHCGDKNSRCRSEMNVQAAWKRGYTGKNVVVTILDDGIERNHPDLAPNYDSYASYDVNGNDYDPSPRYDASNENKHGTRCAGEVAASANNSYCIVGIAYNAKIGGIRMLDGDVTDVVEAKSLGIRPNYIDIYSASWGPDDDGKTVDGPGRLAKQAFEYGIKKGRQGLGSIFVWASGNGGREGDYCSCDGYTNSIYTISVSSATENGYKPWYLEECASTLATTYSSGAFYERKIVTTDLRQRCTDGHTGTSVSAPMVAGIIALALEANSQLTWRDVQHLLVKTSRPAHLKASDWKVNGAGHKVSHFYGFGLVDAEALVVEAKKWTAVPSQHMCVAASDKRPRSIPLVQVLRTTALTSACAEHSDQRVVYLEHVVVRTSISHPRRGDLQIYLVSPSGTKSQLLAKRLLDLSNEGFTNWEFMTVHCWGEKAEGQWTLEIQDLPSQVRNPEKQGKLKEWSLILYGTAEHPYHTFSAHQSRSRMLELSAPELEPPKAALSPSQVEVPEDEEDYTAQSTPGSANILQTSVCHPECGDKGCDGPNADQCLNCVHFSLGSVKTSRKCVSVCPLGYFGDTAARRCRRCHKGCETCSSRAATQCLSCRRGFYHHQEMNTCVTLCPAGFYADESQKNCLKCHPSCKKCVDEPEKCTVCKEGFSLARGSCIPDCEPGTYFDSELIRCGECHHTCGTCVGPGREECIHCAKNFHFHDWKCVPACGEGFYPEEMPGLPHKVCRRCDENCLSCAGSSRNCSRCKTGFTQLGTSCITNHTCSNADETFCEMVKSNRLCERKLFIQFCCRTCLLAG
Text: (§1) The first major distinction observed was the lack of secretion of PACE4-altCT accompanied with intracellular retention when compared to PACE4-FL which was efficiently secreted in the medium (FIGS. 7B and C). This observation correlated with the distinct cell distribution observed for each isoforms in IHC, i.e. the PACE4-FL being more accumulated at the membrane/extracellular surface compared to PACE4-altCT being restricted to the vesicular intracellular compartment (FIG. 3D). PACE4, at least PACE4-FL, is known to be secreted in the medium and to be retained in the extracellular matrix through the binding to heparan sulfate proteoglycans by its cysteine-rich domain and to be displaceable by heparin.
(§2) For PACE4 secretion assays, cells were plated at equal densities in 6-well plates for 24 h in complete medium. 24 h later, the medium was replaced by the minimal volume required of fresh culture medium (600 μL without FBS) and the cells were either allowed to secrete for the indicated time (for secretion kinetics) or (for inhibitor treatments) allowed to secrete for an additional 24 h in the presence of the indicated concentrations of agents (heparin (Sandoz, Niirnberg, Germany), 2-bromopalmitate (Sigma Aldrich), FTI-277 (Sigma Aldrich), GGTI-2133 (Santa Cruz Biotechnology Inc., Santa Cruz, Calif., USA)

PACE4-altCT = molecular target: T2, PACE4-altCT (Homo sapiens, UniProt P29122); assay: PACE4 secretion assay, displacement by heparin; conditions: increasing doses
T2 construct: V5 (C); His (C); expressed in transfected cells
T2 sequence (P29122 with tags, fused parts or gaps limits assumed): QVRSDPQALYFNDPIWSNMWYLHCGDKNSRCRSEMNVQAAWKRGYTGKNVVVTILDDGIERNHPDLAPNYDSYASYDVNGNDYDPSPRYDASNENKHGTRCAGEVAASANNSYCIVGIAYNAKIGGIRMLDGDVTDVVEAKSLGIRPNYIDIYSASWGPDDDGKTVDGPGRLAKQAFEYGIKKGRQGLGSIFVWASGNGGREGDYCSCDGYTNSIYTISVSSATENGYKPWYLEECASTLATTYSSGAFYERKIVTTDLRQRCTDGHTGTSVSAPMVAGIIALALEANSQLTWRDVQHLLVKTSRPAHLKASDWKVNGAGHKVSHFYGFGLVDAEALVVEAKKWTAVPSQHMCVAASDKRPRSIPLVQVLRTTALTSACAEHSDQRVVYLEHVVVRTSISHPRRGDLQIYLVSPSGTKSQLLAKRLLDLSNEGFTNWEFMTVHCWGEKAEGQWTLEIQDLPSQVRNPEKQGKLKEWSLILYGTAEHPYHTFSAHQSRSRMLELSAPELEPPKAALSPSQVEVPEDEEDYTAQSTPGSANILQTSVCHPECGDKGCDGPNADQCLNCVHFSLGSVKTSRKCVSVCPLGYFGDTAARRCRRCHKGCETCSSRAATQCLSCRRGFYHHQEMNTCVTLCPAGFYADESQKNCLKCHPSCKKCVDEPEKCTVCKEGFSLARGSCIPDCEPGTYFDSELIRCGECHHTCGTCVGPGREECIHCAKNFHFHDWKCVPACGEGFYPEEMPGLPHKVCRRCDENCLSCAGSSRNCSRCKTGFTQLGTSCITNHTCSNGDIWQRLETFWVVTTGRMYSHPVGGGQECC
Text: as §1, §2

DU145 cells = assay: PACE4 exon 25 splicing index (PACE4-altCT/PACE4-FL mRNA) by qPCR; conditions: DU145, treated for 72 h
Description: (§3) For actinomycin-D (Sigma Aldrich) or cycloheximide (Sigma Aldrich) treatments, compounds were first dissolved in DMSO, and diluted to a final concentration of 5 μg/mL and 40 μg/mL in the culture medium respectively. Actinomycin-D treatment never exceeded 8 h, which is the time-frame prior to early apoptosis induction. For treatments wit 5-aza-2′-deoxy-cytidine (Sigma Aldrich), compound was first dissolved in DMSO and further diluted prior to addition to cell culture medium, which was changed every day and replaced with fresh one containing the compound for a total exposure of 72 h. […]
(§4) 1 μg RNA was DNase I-treated (Invitrogen), reverse-transcribed using Superscript II reverse transcriptase (Invitrogen), and RNase H-treated (Ambion, Austin, Tex.) before quantitative PCR performed using a Stratagene Mx3005P instrument. Relative expression levels were calculated using β-actin as a reference gene with the formula (1+amplification efficiency)^−(CT). […]

LNCaP cells = assay: as above; conditions: treated for 72 h
Description: as §3, §4

[1] = test system: CpG dinucleotides of interest in PCSK6 gene; assay: CpG methylation status analysis by pyrosequencing; conditions: DU145 and LNCaP cells, 72 h, refreshed every 24 h
Text: FIG. 5 illustrates decitabine (5-aza-dC) efficiency at hypomethylating CpG dinucleotides of interest in PCSK6 gene, showing in (A) schematic representation of the 3′ extremity of PCSK6 gene, putting emphasis on the coding and non-coding region between exon 24, exon 25 and exon 25 alt, wherein ChiP-Seq enriched regions as viewed in UCSC genome browser ChiP-Seq are represented as ovals, each CpG nucleotide analyzed is highlighted, and the inversion of 5′ and 3′ ends is shown for reading purposes; (B) DU145 and LNCaP cells (C) were treated with decitabine at the indicated concentrations for 72 h (medium and decitabine being refreshed every 24 h) and DNA was extracted and used for CpG methylation status analysis using pyrosequencing.
DNA was purified from 14 pairs of tumoral and non-tumoral prostate biopsies and from DU145 and LNCaP cells treated with 5axa-dC using DNeasy Blood & Tissue Kit (Qiagen, #69504). Concentration, yield and purity of gDNA samples were measured using spectrometry. All samples provided good gDNA yield and quality (A260/A280 ratio between 1.7 and 2.0). Gold standard pyrosequencing technology was used to determine base-specific cytosine methylation levels located upstream of guanines (sequence called CpG dinucleotides). […] Overall, nine potentially methylated cytosines (in a CpG dinucleotides context) were analyzed at the PCSK6 gene locus.

[2] = test system: CTCF binding to PCSK6 alternative terminal exon regions; assay: Chromatin immunoprecipitation with anti-CTCF antibody; conditions: DU145 and LNCaP cells treated for 72 h
Description: Cells were cultured in 150 mm culture dishes and submitted to crosslinking through the addition of formaldehyde to a final concentration of 1.1% for 10 min at room temperature followed by a quenching step with 125 mM glycine for another 5 min. Cells were washed twice with ice-cold PBS, collected using a cell scraper and frozen in liquid nitrogen and stored at −80° C. until analyses. Cell pellets were resuspended in HEPES 10 mM pH 6.5; 0.5 mM EDTA, 0.25% Triton-X-100 and centrifugated at 4,000 rpm at 4° C. for 5 min. Pellet was further lysed by adding 200 μL of Tris 50 mM pH 8.1; 10 mM EDTA, 1% SDS and passing 3 times through a 28 G syringe. Cell preparations were incubated 1 h at 4° C. with constant agitation and nuclei were pelleted by a centrifugation at 5,000 rpm. […] DNA fragmentation was routinely assessed by agarose gel electrophoresis using 10 μL of the fragmented DNA solution (beforehand treated with RNase A 10 μg/mL for 10 min). For each IP, 350 μg of DNA were used (based on concentration determined using the OD260 nm) and 5% of the corresponding volumes were kept aside as Input DNA for quantitation. […] 3 μL of the purified DNA were further used for qPCR analyses and quantitation was established using the 1% input as a standard.

displacement into the medium by heparin (PACE4-FL) | displacement into the medium by heparin (PACE4-altCT) | CTCF ChIP enrichment of intra-exonic and upstream region [2] | Compound | change of splicing index (DU145 cells) | change of splicing index (LNCaP cells) | CpG hypomethylation [1]
increased amount in the medium | could not be displaced |  | heparin |  |  | 
 |  | clear enrichment | Nc1ncn([C@H]2C[C@H](O)[C@@H](CO)O2)c(=O)n1 [decitabine, 5-aza-2′-deoxycytidine] | increased in a dose-dependent manner | increased in a dose-dependent manner | sensitive to decitabine in a dose-dependent manner
